Patent US20200123146A1, “HETEROCYCLIC INTEGRIN AGONISTS” (GB006, Inc., priority 2016, published 2020)

Target: T1, integrin CD11b/CD18 (K562 CD11b/CD18 cells) (Homo sapiens, UniProt P05107+P11215)
T1 construct: host or cells: K562 cells stably transfected with wild-type CD11b/CD18
Assay: K562 cell adhesion assay with immobilized ligands
Format: cell-based
Conditions: cell-based adhesion assay, K562 cells, 30 min at 37° C.
Excerpt: Cell Lines. K562 cells (ATCC) stably transfected with wild-type integrin CD11b/CD18 (K562 CD11b/CD18) have been described previously (Park, etal. J Biomol Screen, 2007. 12(3): 406; Gupta, et al., Blood, 2007. 109(8): 3513; incorporated herein by reference in their entirety). Mutant CD11bE320A has been described previously (Alonso, et al. Curr Biol, 2002. 12(10): R340; incorporated herein by reference in its entirety). K562 cells stably transfected with mutant integrin CD11bE320A/CD18 (K562 E320A) were generated according to literature protocols (Park, supra; Gupta, supra). All cell lines were maintained in Iscove's Modified Dulbecco's Medium (IMDM) supplemented with 10% heat-inactivated fetal bovine serum, 50 IU/ml penicillin and streptomycin and 0.5 mg/ml G418.
K562 Cell Adhesion Assay. Cell adhesion assays with immobilized ligands were performed as previously described (Park, supra). Assays with all different K562 cell lines (K562, K562 CD11b/CD18 and K562 E320A) were performed in an identical fashion. Briefly, 384-well Highbind microtiter plates were coated with a 30 μL solution of ligand in Phosphate Buffered Saline, pH 7.4 containing 1 mM each of Ca^2+ and Mg^2+ ions (PBS^++) overnight at 4° C. Ligand Fg was coated at a concentration of 5-15 μg/mL and iC3b at 1-5 μg/mL. Heterodimer specific mAb IB4 was coated at 1-20 μg/mL. Subsequently, the non-specific sites in the wells were blocked by incubation with 1% non-fat milk in Tris Buffered Saline (TBS), pH 7.4, at room temperature for 1 h. Next, the wells were washed three times with TBS. K562 cells were suspended in the assay buffer (TBS containing 1 mM each of Ca^2+ and Mg^2+ ions (TBS^++)) and were transferred to the ligand-coated wells (30,000 cells/well). Stock solutions of the integrin agonists were prepared by dissolving the compounds in DMSO at a concentration of 2-10 mM. Final concentration of DMSO in the assay was approximately 1-2%. K562 cells were incubated in the presence of increasing concentration of integrin agonist for 30 min at 37° C. To dislodge non-adherent cells, the assay plates were gently inverted and kept in the inverted position for 30 min at room temperature. Cells remaining adherent were fixed using formaldehyde and were quantitated using imaging microscopy, as previously described (Park, supra).

Row | EC50 | SMILES
1 | > 10 µM | CCOC(=O)c1ccc(-c2ccc(CN3CC(=O)N(Cc4ccccc4)C3=O)o2)cc1 [Compound 6, Ethyl 4-(5-((3-benzyl-2,4-dioxoimidazolidin-1-yl)methyl)furan-2-yl)benzoate]
2 | 1 to 10 µM | O=C(O)c1ccc(-c2ccc(/C=C3\SC(=S)N(Cc4ccccc4O)C3=O)o2)cc1 [Compound 41, (Z)-4-(5-((3-(2-hydroxybenzyl)-4-oxo-2-thioxothiazolidin-5-ylidene)methyl)furan-2-yl)benzoic acid]
3 | 0.1 to 0.25 µM | O=C(O)c1ccc(-c2ccc(/C=C3\SC(=S)N(Cc4ccc(Cl)cc4)C3=O)o2)cc1 [Compound 35, (Z)-4-(5-((3-(4-Chlorobenzyl)-4-oxo-2-thioxothiazolidin-5-ylidene)methyl)furan-2-yl)benzoic acid]
4 | > 10 µM | O=C(O)c1ccc(-c2cccc(/C=C3\OC(=S)N(Cc4ccc(F)cc4)C3=O)c2)cc1 [Compound 9, (Z)-3′-((3-(4-Fluorobenzyl)-4-oxo-2-thioxooxazolidin-5-ylidene)methyl)-[1,1′-biphenyl]-4-carboxylic acid]
5 | 0.1 to 0.25 µM | O=C(O)c1ccc(-c2ccc(/C=C3\SC(=S)N(Cc4cccc(Cl)c4)C3=O)o2)cc1 [Compound 30, (Z)-4-(5-((3-(3-Chlorobenzyl)-4-oxo-2-thioxothiazolidin-5-ylidene)methyl)furan-2-yl)benzoic acid]
6 | 1 to 10 µM | O=C(O)c1ccc(-c2ccnc(/C=C3\SC(=S)N(Cc4ccc(F)cc4)C3=O)c2)cc1 [Compound 22, (Z)-4-(2-((3-(4-Fluorobenzyl)-4-oxo-2-thioxothiazolidin-5-ylidene)methyl)pyridin-4-yl)benzoic acid]
7 | > 10 µM | CCOC(=O)c1ccc(-c2ccc(CN3CC(=S)N(Cc4ccccc4)C3=O)o2)cc1 [Compound 7, Ethyl 4-(5-((3-benzyl-2-oxo-4-thioxoimidazolidin-1-yl)methyl)furan-2-yl)benzoate]
8 | 1 to 10 µM | O=C(O)c1ccc(-c2nccc(/C=C3\SC(=S)N(Cc4ccccc4)C3=O)n2)cc1 [Compound 19, (Z)-4-(4-((3-Benzyl-4-oxo-2-thioxothiazolidin-5-ylidene)methyl)pyrimidin-2-yl)benzoic acid]
9 | 0.25 to 1 µM | COC(=O)c1ccc(-c2ccc(/C=C3\SC(=S)N(Cc4ccccc4)C3=O)o2)cn1 [Compound 13, Methyl (Z)-5-(5-((3-benzyl-4-oxo-2-thioxothiazolidin-5-ylidene)methyl)furan-2-yl)picolinate]
10 | 0.1 to 0.25 µM | COC(=O)c1ccc(-c2ccc(/C=C3\SC(=S)N(Cc4ccc(F)cc4)C3=O)o2)cn1 [Compound 16, Methyl (Z)-5-(5-((3-(4-fluorobenzyl)-4-oxo-2-thioxothiazolidin-5-ylidene)methyl)furan-2-yl)picolinate]
11 | 0.25 to 1 µM | Cc1cccc(CN2C(=O)/C(=C/c3ccc(-c4ccc(C(=O)O)cc4)o3)SC2=S)c1C [Compound 31, (Z)-4-(5-((3-(2,3-Dimethylbenzyl)-4-oxo-2-thioxothiazolidin-5-ylidene)methyl)furan-2-yl)benzoic acid]
12 | 0.25 to 1 µM | Cc1cccc(CN2C(=O)/C(=C/c3ccc(-c4ccc(C(=O)O)cc4)o3)SC2=S)c1 [Compound 28, (Z)-4-(5-((3-(3-Methylbenzyl)-4-oxo-2-thioxothiazolidin-5-lidene)methyl)furan-2-yl)benzoic acid]
13 | 0.1 to 0.25 µM | COc1ccc(CN2C(=O)/C(=C/c3ccc(-c4ccc(C(=O)O)cc4)o3)SC2=S)cc1 [Compound 34, (Z)-4-(5-((3-(4-Methoxybenzyl)-4-oxo-2-thioxothiazolidin-5-ylidene)methyl)furan-2-yl)benzoic acid]
14 | 0.1 to 0.25 µM | Cc1ccc(CN2C(=O)/C(=C/c3ccc(-c4ccc(C(=O)O)cc4)o3)SC2=S)cc1C [Compound 38, (Z)-4-(5-((3-(3,4-Dimethylbenzyl)-4-oxo-2-thioxothiazolidin-5-ylidene)methyl)furan-2-yl)benzoic acid]
15 | 1 to 10 µM | O=C(O)c1ccc(-c2ccc(/C=C3\NC(=S)N(Cc4ccccc4)C3=O)o2)cc1 [Compound 4, (Z)-4-(5-((1-Benzyl-5-oxo-2-thioxoimidazolidin-4-ylidene)methyl)furan-2-yl)benzoic acid]
16 | 1 to 10 µM | O=C(O)c1ccc(-c2ccc(/C=C3\SC(=S)N(CC4CCCCC4)C3=O)o2)cc1 [Compound 40, (Z)-4-(5-((3-(Cyclohexylmethyl)-4-oxo-2-thioxothiazolidin-5-ylidene)methyl)furan-2-yl)benzoic acid]

Row | EC50 | SMILES
17 | 0.25 to 1 µM | COC(=O)c1ccc(-c2ccc(/C=C3\OC(=S)N(Cc4ccc(F)cc4)C3=O)o2)cn1 [Compound 10, methyl (Z)-5-(5-((3-(4-fluorobenzyl)-4-oxo-2-thioxooxazolidin-5-ylidene)methyl)furan-2-yl)picolinate]
18 | > 10 µM | CN1C(=O)N(Cc2ccccc2)C(=O)/C1=C/c1ccc(-c2ccc(C(=O)O)cc2)o1 [Compound 2, (Z)-4-(5-((1-Benzyl-3-methyl-2,5-dioxoimidazolidin-4-ylidene)methyl)furan-2-yl)benzoic acid]
19 | 0.25 to 1 µM | COc1ccccc1CN1C(=O)/C(=C/c2ccc(-c3ccc(C(=O)O)cc3)o2)SC1=S [Compound 27, (Z)-4-(5-((3-(2-Methoxybenzyl)-4-oxo-2-thioxothiazolidin-5-ylidene)methyl)furan-2-yl)benzoic acid]
20 | 0.25 to 1 µM | O=C(O)c1ccc(-c2cccc(/C=C3\SC(=S)N(Cc4ccc(F)cc4)C3=O)n2)cc1 [Compound 21, (Z)-4-(6-((3-(4-Fluorobenzyl)-4-oxo-2-thioxothiazolidin-5-ylidene)methyl)pyridin-2-yl)benzoic acid]
21 | 0.25 to 1 µM | O=C(O)c1ccc(-c2ccc(/C=C3\SC(=S)N(Cc4ccccc4Cl)C3=O)o2)cc1 [Compound 36, (Z)-4-(5-((3-(2-Chlorobenzyl)-4-oxo-2-thioxothiazolidin-5-ylidene)methyl)furan-2-yl)benzoic acid]
22 | > 10 µM | COC(=O)c1ccc(-c2cccc(/C=C3\SC(=S)N(Cc4ccccc4)C3=O)c2)cc1 [Compound 23, methyl (Z)-3′-((3-benzyl-4-oxo-2-thioxothiazolidin-5-ylidene)methyl)-[1,1′-biphenyl]-4-carboxylate]
23 | 1 to 10 µM | O=C(O)c1ccc(-c2cccc(/C=C3\SC(=S)N(Cc4ccc(F)cc4)C3=O)c2)cc1 [Compound 20, (Z)-3′-((3-(4-Fluorobenzyl)-4-oxo-2-thioxothiazolidin-5-ylidene)methyl)-[1,1′-biphenyl]-4-carboxylic acid]
24 | 0.25 to 1 µM | O=C(O)c1ccc(-c2ccc(/C=C3\SC(=S)N(Cc4ccccc4)C3=O)o2)nc1 [Compound 14, (Z)-6-(5-((3-Benzyl-4-oxo-2-thioxothiazolidin-5-ylidene)methyl)furan-2-yl)nicotinic acid]
25 | 0.25 to 1 µM | COc1cccc(CN2C(=O)/C(=C/c3ccc(-c4ccc(C(=O)O)cc4)o3)SC2=S)c1 [Compound 29, (Z)-4-(5-((3-(3-Methoxybenzyl)-4-oxo-2-thioxothiazolidin-5-ylidene)methyl)furan-2-yl)benzoic acid]
26 | > 10 µM | CN1C(=S)N(Cc2ccccc2)C(=O)/C1=C/c1ccc(-c2ccc(C(=O)O)cc2)o1 [Compound 5, (Z)-4-(5-((1-Benzyl-3-methyl-5-oxo-2-thioxoimidazolidin-4-ylidene)methyl)furan-2-yl)benzoic acid]
27 | > 10 µM | O=C(O)c1ccc(-c2ccc(CN3CC(=O)N(Cc4ccccc4)C3=O)o2)cc1 [Compound 11, 4-(5-((3-Benzyl-2,4-dioxoimidazolidin-1-yl)methyl)furan-2-yl)benzoic acid]
28 | > 10 µM | O=C(O)c1ccc(-c2ccc(/C=C3\NC(=O)N(Cc4ccccc4)C3=O)o2)cc1 [Compound 3, (Z)-4-(5-((1-Benzyl-2,5-dioxoimidazolidin-4-ylidene)methyl)furan-2-yl)benzoic acid]
29 | > 10 µM | COC(=O)c1ccc(-c2cccc(/C=C3\SC(=S)N(Cc4ccccc4)C3=O)n2)cc1 [Compound 24, Methyl (Z)-4-(6-((3-benzyl-4-oxo-2-thioxothiazolidin-5-ylidene)methyl)pyridin-2-yl)benzoate]
30 | 0.1 to 0.25 µM | O=C(O)c1ccc(-c2ccc(/C=C3\SC(=S)N(Cc4ccc(F)cc4)C3=O)o2)cc1 [Compound 32, (Z)-4-(5-((3-(4-Fluorobenzyl)-4-oxo-2-thioxothiazolidin-5-ylidene)methyl)furan-2-yl)benzoic acid]
31 | 1 to 10 µM | O=C(O)c1ccc(-c2cccc(/C=C3\SC(=S)N(Cc4ccccc4)C3=O)c2)cc1 [Compound 17, (Z)-3′-((3-Benzyl-4-oxo-2-thioxothiazolidin-5-ylidene)methyl)-[1,1′-biphenyl]-4-carboxylic acid]
